Measurements taken from the NIST ThermoML archive (doi:10.1016/j.jct.2017.03.006).
± gives the expanded uncertainty stated by the source.

Test: xn = mol fraction of the nth substance listed
Conditions: 273.15 K, Liquid, Vibrating tube method

Cc1ccc(C)c(C)c1 [1,2,4-trimethylbenzene] + CCCCO
mass density [kg/m3]
Conditions	x2 = 0	x2 = 0.1005	x2 = 0.2261	x2 = 0.2999	x2 = 0.3966	x2 = 0.5289	x2 = 0.6367	x2 = 0.7249	x2 = 0.7977	x2 = 0.9131
100 kPa	891.7 ± 0.7	886.7 ± 0.7	880.3 ± 0.7	876.4 ± 0.7	870.8 ± 0.7	862.9 ± 0.7	855.6 ± 0.7	849.2 ± 0.7	–	833.3 ± 0.7
1000 kPa	892.3 ± 0.7	887.1 ± 0.7	880.5 ± 0.7	876.7 ± 0.7	871.1 ± 0.7	863.2 ± 0.7	855.9 ± 0.7	849.5 ± 0.7	843.7 ± 0.7	833.7 ± 0.7
5000 kPa	894.6 ± 0.7	889.5 ± 0.7	883 ± 0.7	879.2 ± 0.7	873.6 ± 0.7	865.7 ± 0.7	858.5 ± 0.7	852.1 ± 0.7	846.3 ± 0.7	836.3 ± 0.7
10000 kPa	897.4 ± 0.7	892.4 ± 0.7	885.9 ± 0.7	882.1 ± 0.7	876.6 ± 0.7	868.8 ± 0.7	861.5 ± 0.7	855.2 ± 0.7	849.4 ± 0.7	839.4 ± 0.7
20000 kPa	902.8 ± 0.7	897.9 ± 0.7	891.4 ± 0.7	887.7 ± 0.7	882.2 ± 0.7	874.4 ± 0.7	867.2 ± 0.7	860.8 ± 0.7	855.2 ± 0.7	845.3 ± 0.7
30000 kPa	908 ± 0.7	903.1 ± 0.7	896.7 ± 0.7	893 ± 0.7	887.5 ± 0.7	879.7 ± 0.7	872.6 ± 0.7	866.3 ± 0.7	860.6 ± 0.7	850.8 ± 0.7
40000 kPa	912.9 ± 0.7	908 ± 0.7	901.7 ± 0.7	897.9 ± 0.7	892.5 ± 0.7	884.8 ± 0.7	877.7 ± 0.7	871.4 ± 0.7	865.8 ± 0.8	856 ± 0.8
50000 kPa	917.5 ± 0.7	912.6 ± 0.7	906.3 ± 0.7	902.7 ± 0.7	897.3 ± 0.7	889.6 ± 0.8	882.5 ± 0.8	876.2 ± 0.8	870.6 ± 0.8	860.9 ± 0.8
60000 kPa	921.9 ± 0.7	–	–	–	–	–	–	–	–	–
